# From patent US20200384003A1, “TRITERPENOID-CONTAINING PHARMACEUTICAL COMPOSITION AND USE THEREOF” (SHANGHAI LANMU CHEMICALS CO., LTD., priority 2017, published 2020)
# Target: T1, mutated lens protein (αB-crystallin R120G) (Homo sapiens, UniProt P02511, R120G)
# T1 construct: expressed in transfected cells; host or cells: HeLa
# T1 sequence (P02511 1-175 R120G): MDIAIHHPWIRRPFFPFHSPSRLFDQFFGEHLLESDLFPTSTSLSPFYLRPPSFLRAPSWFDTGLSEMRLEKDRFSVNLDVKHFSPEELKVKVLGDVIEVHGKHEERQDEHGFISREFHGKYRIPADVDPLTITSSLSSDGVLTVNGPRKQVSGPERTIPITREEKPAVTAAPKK
# Assay: Intracellular mutated lens protein aggregation inhibition experiment in transfected HeLa cells (Example 21)
# Format: cell-based
# Conditions: 10 μM, treated 3.5 hours, then 6.5 h normal medium, fewer + = better
# Experimental: In this example, apart of the specific compounds obtained in Example 19 and Example 20 were selected for intracellular mutated lens protein (αB-crystallin R120G) aggregation inhibition experiment (experimental method was described in Chinese patent CN201580057679). The aggregation inhibition activities of compound I and compound II in the present invention on lens protein mutants were evaluated to screen a compound which was effective in treating related disease such as cataract.
# The tumor cell line HeLa was selected as a host cell transfected with the mutant lens protein (αB-crystallin […]) expression plasmid, the medium was DMEM with […], and the culture conditions were 37° C., saturated humidity and 5% carbon dioxide cell incubator. Mycoplasma was negative. The transfection process is that the appropriate number of HeLa cells were inoculated on the pre-coated slides. When fully adherent cells grew to about 75% cell density, the expression vector was transfected with liposome. After 4 hours of transfection, the medium was changed to normal medium. Then the HeLa cells were cultured in the cell incubator for 13 hours to induce the expression of exogenous mutant lens protein. After changing the medium, the replaced new medium contained various compounds of the formula I and formula II of the present invention to be tested (DMSO was used as solvent in all mother fluid), wherein the final concentration of each compound was 10 μM, the negative control was 1.5% DMSO solvent, and the positive control was lanosterol (10 μM). The HeLa cells were treated with the medium containing the test compound, 1.5% DMSO solvent and lanosterol for 3.5 hours, respectively, and the normal fresh medium containing no DMSO, test compound or lanosterol was exchanged and the cells were cultured for another 6.5 h, then Anti-p62 antibody and DAPI were used for routine cellular immunofluorescence detection. The field of vision of three positions per slide was randomly selected, the ratio of cells containing aggregated crystalline proteins (lens protein aggregates) was calculated, and the effect of each test compound on intracellular aggregation of mutant lens proteins was finally determined, the results were shown in Table 19.
row,Compound,Inhibitory effect (percentage of cells containing aggregated proteins)
1,CC(C)(O)CCC[C@@H](C(=O)O)[C@H]1CC[C@@]2(C)C3=CCC4C(C)(C)[C@@H](O)CC[C@]4(C)C3=CC[C@]12C (stereo partly shown) [Compound 21′],++ (>30% and <45% of the cells in the field of vision contained protein aggregates)
2,C[C@H](C(O)C/C=C/C(=O)O)[C@H]1CC[C@@]2(C)C3=C(CC[C@]12C)[C@@]1(C)CC[C@H](O)C(C)(C)C1CC3 (stereo partly shown) [Compound 34],+ (<30% of the cells in the field of vision contained protein aggregates)
3,C=C(C)C(=O)CC[C@@H](C(=O)O)[C@H]1CC[C@@]2(C)C3=C(CC[C@]12C)[C@@]1(C)CC[C@H](O)C(C)(C)C1CC3 (stereo partly shown) [Compound 7″],++ (>30% and <45% of the cells in the field of vision contained protein aggregates)
4,C[C@H](C(O)C/C=C/C(=O)O)[C@H]1CC[C@@]2(C)C3=C(CC[C@]12C)[C@@]1(C)C[C@@H](F)[C@H](O)C(C)(C)C1CC3 (stereo partly shown) [Compound 42],+ (<30% of the cells in the field of vision contained protein aggregates)
5,C=C(C)C(=O)CC(O)C(C)[C@H]1CC[C@@]2(C)C3=C(CC[C@]12C)[C@@]1(C)CC[C@H](O)C(C)(C)C1CC3 (stereo partly shown) [Compound 17″],++ (>30% and <45% of the cells in the field of vision contained protein aggregates)
6,C[C@H](C(O)CCC(C)(C)O)[C@H]1CC[C@@]2(C)C3=C(CC[C@]12C)[C@@]1(C)CC[C@H](O)C(C)(C)C1CC3 (stereo partly shown) [Compound 15],+ (<30% of the cells in the field of vision contained protein aggregates)
7,C[C@H](C(O)CC(=O)C(C)(C)O)[C@H]1CC[C@@]2(C)C3=C(CC[C@]12C)[C@@]1(C)CC[C@H](O)C(C)(C)C1CC3 (stereo partly shown) [Compound 20],++ (>30% and <45% of the cells in the field of vision contained protein aggregates)
8,C/C(=C\CC(O)[C@@H](C)[C@H]1CC[C@@]2(C)C3=C(CC[C@]12C)[C@@]1(C)CC[C@H](O)C(C)(C)C1CC3)CO (stereo partly shown) [Compound 32],+ (<30% of the cells in the field of vision contained protein aggregates)
9,C[C@H](C(O)CCC(C)(C)O)[C@H]1CC[C@@]2(C)C3=C(CC[C@]12C)[C@@]1(C)C[C@@H](O)[C@H](O)C(C)(C)C1CC3 (stereo partly shown) [Compound 25],+ (<30% of the cells in the field of vision contained protein aggregates)
10,C[C@H](C(O)CC(O)C(C)(C)O)[C@H]1CC[C@@]2(C)C3=C(CC[C@]12C)[C@@]1(C)CC[C@H](O)C(C)(C)C1CC3 (stereo partly shown) [Compound 17],++ (>30% and <45% of the cells in the field of vision contained protein aggregates)
11,C[C@H](C(O)/C=C/C(C)(C)O)[C@H]1CC[C@@]2(C)C3=C(CC[C@]12C)[C@@]1(C)CC[C@H](O)C(C)(C)C1CC3 (stereo partly shown) [Compound 4″],+ (<30% of the cells in the field of vision contained protein aggregates)
12,C[C@H](C(O)CC(Br)C(C)(C)O)[C@H]1CC[C@@]2(C)C3=C(CC[C@]12C)[C@@]1(C)CC[C@H](O)C(C)(C)C1CC3 (stereo partly shown) [Compound 13],++ (>30% and <45% of the cells in the field of vision contained protein aggregates)
13,C[C@H](C(O)CCC(C)(C)O)[C@H]1CC[C@@]2(C)C3=CCC4C(C)(C)[C@@H](O)CC[C@]4(C)C3=CC[C@]12C (stereo partly shown) [Compound 21],+ (<30% of the cells in the field of vision contained protein aggregates)
14,CC(=O)[C@@H](C)[C@H]1CC[C@@]2(C)C3=C(CC[C@]12C)[C@@]1(C)CC[C@H](O)C(C)(C)C1CC3 (stereo partly shown) [Compound 6″],++ (>30% and <45% of the cells in the field of vision contained protein aggregates)
15,CC(C)=CCCC(C=O)[C@H]1CC[C@@]2(C)C3=C(CC[C@]12C)[C@@]1(C)CC[C@H](O)C(C)(C)C1CC3 (stereo partly shown) [Compound 2″],++ (>30% and <45% of the cells in the field of vision contained protein aggregates)
16,CC(C)(O)CCC[C@@H](C(=O)O)[C@H]1CC[C@@]2(C)C3=C(CC[C@]12C)[C@@]1(C)CC[C@H](O)C(C)(C)C1CC3 (stereo partly shown) [Compound 15′],+ (<30% of the cells in the field of vision contained protein aggregates)
17,C[C@H](C(O)CCC(C)(C)O)[C@H]1CC[C@@]2(C)C3=C(CC[C@]12C)[C@@]1(C)C[C@@H](F)[C@H](O)C(C)(C)C1CC3 (stereo partly shown) [Compound 23],+ (<30% of the cells in the field of vision contained protein aggregates)
18,C[C@H](C(O)C/C=N/O)[C@H]1CC[C@@]2(C)C3=C(CC[C@]12C)[C@@]1(C)CC[C@H](O)C(C)(C)C1CC3 (stereo partly shown) [Compound 5],+ (<30% of the cells in the field of vision contained protein aggregates)
19,CC(=O)O[C@H]1CC[C@]2(C)C3=C(CCC2C1(C)C)[C@]1(C)CC[C@H]([C@H](C)C(O)CC2OC2(C)C)[C@@]1(C)CC3 (stereo partly shown) [Compound 10],+ (<30% of the cells in the field of vision contained protein aggregates)
20,COC(C)(C)C(O)CC(O)[C@@H](C)[C@H]1CC[C@@]2(C)C3=C(CC[C@]12C)[C@@]1(C)CC[C@H](O)C(C)(C)C1CC3 (stereo partly shown) [Compound 8″],++ (>30% and <45% of the cells in the field of vision contained protein aggregates)
21,CC(C)=CCC[C@H](C=O)[C@H]1CC[C@@]2(C)C3=C(CC[C@]12C)[C@@]1(C)CCC(=O)C(C)(C)C1CC3 (stereo partly shown) [Compound 5″],++ (>30% and <45% of the cells in the field of vision contained protein aggregates)
22,C[C@H](C(O)CCC(C)(C)O)[C@H]1CC[C@@]2(C)C3=C(CC[C@]12C)[C@@]1(C)C[C@@H](F)[C@@H](O)C(C)(C)C1CC3 (stereo partly shown) [Compound 24],+ (<30% of the cells in the field of vision contained protein aggregates)
23,CC(C)(O)C(=O)CC[C@@H](C(=O)O)[C@H]1CC[C@@]2(C)C3=C(CC[C@]12C)[C@@]1(C)CC[C@H](O)C(C)(C)C1CC3 (stereo partly shown) [Compound 20′],++ (>30% and <45% of the cells in the field of vision contained protein aggregates)
24,CO[C@H]1CC[C@]2(C)C3=C(CCC2C1(C)C)[C@]1(C)CC[C@H]([C@H](C)C(O)CCC(C)(C)OC)[C@@]1(C)CC3 (stereo partly shown) [Compound 9],++ (>30% and <45% of the cells in the field of vision contained protein aggregates)
25,C/C(=C\CC(O)[C@@H](C)[C@H]1CC[C@@]2(C)C3=C(CC[C@]12C)[C@@]1(C)CC[C@H](O)C(C)(C)C1CC3)C(=O)O (stereo partly shown) [Compound 27],+ (<30% of the cells in the field of vision contained protein aggregates)
